What was measured:
[1] = test system: patients with advanced or metastatic solid tumors; test: Trial 1403-0001 dose finding: MTD/RDE, BLRM analysis with overdose control (EWOC); format: in vivo; settings: for N of evaluable patients with events of interests: all cycles
Text: Preliminary pharmacokinetic (PK) data were also used as supportive information for the dose decision.

[2] = test system: patients; test: Trial 1403-0002 combination with ezabenlimab (and anti-LAG3-1): adverse events; settings: for AEs leading to Discontinuation: Dose limiting toxicity, % / AEs leading to Discontinuation: Other adverse event, % / Patients with Dose limiting toxicity (cycle one), % / Serious AEs: Cogenital Anomaly or Birth Defect, % / Serious AEs: Is Life Threatening, % / Serious AEs: Other Medically Important Serious Event, % / Serious AEs: Persists of Signif. Disability/Incapacity, % / Serious AEs: Requires or Prolongs Hospitalization, % / Serious AEs: Results in Death, % / Subjects with AEs leading to Discontinuation of trial drug, % / Subjects with AEs leading to dose reduction of trial drug, % / Subjects with any AE, % / Subjects with immune-related AEs, % / Subjects with infusion related reactions, % / Subjects with investigator defined drug-related AEs, % / Subjects with maximum CTC Grade 1, % / Subjects with maximum CTC Grade 2, % / Subjects with maximum CTC Grade 3, % / Subjects with maximum CTC Grade 4, % / Subjects with maximum CTC Grade 5, % / Subjects with serious AEs, %: triple combination D1 q3w
[3] = double combination with 240 mg ezabenlimab, 15 patients

Cc1c(C(=O)O)ccc2c3n(nc12)[C@@H]1[C@H](C3)N(CC2CC2)[C@@]2(C(=O)Nc3cc(Cl)ccc32)[C@H]1c1cccc(Cl)c1F [MDM2-antagonist of formula I, (2′S,3′S,3a'S,10a'S)-6-chloro-3′-(3-chloro-2-fluorophenyl)-1′-(cyclopropylmethyl)-6′-methyl-2-oxo-1,2,3′,3a′,10′,10a′-hexahydro-1′H-spiro[indole-3,2′-pyrrolo[2′,3′:4,5]pyrrolo[1,2-b]indazole]-7′-carboxylic acid]
4 patients: patients with Grade ≥3 thrombocytopenia [2, 3]
45.5%: Serious AEs: Requires or Prolongs Hospitalization, % ([2]; Total) | Subjects with serious AEs, % ([2]; Total)
Four: DLTs reported after cycle 1 [2, 3]
6 patients: patients with Grade ≥3 anemia [2, 3]
0%: AEs leading to Discontinuation: Dose limiting toxicity, % ([2]; 10 mg) | AEs leading to Discontinuation: Other adverse event, % ([2]; 10 mg) | Patients with Dose limiting toxicity (cycle one), % ([2]; 10 mg) | Serious AEs: Cogenital Anomaly or Birth Defect, % ([2]; 10 mg) | Serious AEs: Is Life Threatening, % ([2]; 10 mg) | Serious AEs: Other Medically Important Serious Event, % ([2]; 10 mg) | Serious AEs: Persists of Signif. Disability/Incapacity, % ([2]; 10 mg) | Serious AEs: Requires or Prolongs Hospitalization, % ([2]; 10 mg) | Serious AEs: Results in Death, % ([2]; 10 mg) | Subjects with AEs leading to Discontinuation of trial drug, % ([2]; 10 mg) | Subjects with AEs leading to dose reduction of trial drug, % ([2]; 10 mg) | Subjects with immune-related AEs, % ([2]; 10 mg) | Subjects with maximum CTC Grade 3, % ([2]; 10 mg) | Subjects with maximum CTC Grade 4, % ([2]; 10 mg) | Subjects with maximum CTC Grade 5, % ([2]; 10 mg) | Subjects with serious AEs, % ([2]; 10 mg) | AEs leading to Discontinuation: Dose limiting toxicity, % ([2]; 20 mg) | AEs leading to Discontinuation: Other adverse event, % ([2]; 20 mg) | Patients with Dose limiting toxicity (cycle one), % ([2]; 20 mg) | Serious AEs: Cogenital Anomaly or Birth Defect, % ([2]; 20 mg) | Serious AEs: Is Life Threatening, % ([2]; 20 mg) | Serious AEs: Other Medically Important Serious Event, % ([2]; 20 mg) | Serious AEs: Persists of Signif. Disability/Incapacity, % ([2]; 20 mg) | Serious AEs: Results in Death, % ([2]; 20 mg) | Subjects with AEs leading to Discontinuation of trial drug, % ([2]; 20 mg) | Subjects with AEs leading to dose reduction of trial drug, % ([2]; 20 mg) | Subjects with infusion related reactions, % ([2]; 20 mg) | Subjects with maximum CTC Grade 1, % ([2]; 20 mg) | Subjects with maximum CTC Grade 2, % ([2]; 20 mg) | Subjects with maximum CTC Grade 4, % ([2]; 20 mg) | Subjects with maximum CTC Grade 5, % ([2]; 20 mg) | AEs leading to Discontinuation: Dose limiting toxicity, % ([2]; 30 mg) | AEs leading to Discontinuation: Other adverse event, % ([2]; 30 mg) | Patients with Dose limiting toxicity (cycle one), % ([2]; 30 mg) | Serious AEs: Cogenital Anomaly or Birth Defect, % ([2]; 30 mg) | Serious AEs: Is Life Threatening, % ([2]; 30 mg) | Serious AEs: Other Medically Important Serious Event, % ([2]; 30 mg) | Serious AEs: Persists of Signif. Disability/Incapacity, % ([2]; 30 mg) | Serious AEs: Results in Death, % ([2]; 30 mg) | Subjects with AEs leading to Discontinuation of trial drug, % ([2]; 30 mg) | Subjects with immune-related AEs, % ([2]; 30 mg) | Subjects with infusion related reactions, % ([2]; 30 mg) | Subjects with maximum CTC Grade 1, % ([2]; 30 mg) | Subjects with maximum CTC Grade 5, % ([2]; 30 mg) | AEs leading to Discontinuation: Dose limiting toxicity, % ([2]; 45 mg) | AEs leading to Discontinuation: Other adverse event, % ([2]; 45 mg) | Patients with Dose limiting toxicity (cycle one), % ([2]; 45 mg) | Serious AEs: Cogenital Anomaly or Birth Defect, % ([2]; 45 mg) | Serious AEs: Is Life Threatening, % ([2]; 45 mg) | Serious AEs: Other Medically Important Serious Event, % ([2]; 45 mg) | Serious AEs: Persists of Signif. Disability/Incapacity, % ([2]; 45 mg) | Serious AEs: Results in Death, % ([2]; 45 mg) | Subjects with AEs leading to Discontinuation of trial drug, % ([2]; 45 mg) | Subjects with immune-related AEs, % ([2]; 45 mg) | Subjects with infusion related reactions, % ([2]; 45 mg) | Subjects with maximum CTC Grade 1, % ([2]; 45 mg) | Subjects with maximum CTC Grade 3, % ([2]; 45 mg) | Subjects with maximum CTC Grade 5, % ([2]; 45 mg) | AEs leading to Discontinuation: Dose limiting toxicity, % ([2]; Total) | AEs leading to Discontinuation: Other adverse event, % ([2]; Total) | Patients with Dose limiting toxicity (cycle one), % ([2]; Total) | Serious AEs: Cogenital Anomaly or Birth Defect, % ([2]; Total) | Serious AEs: Is Life Threatening, % ([2]; Total) | Serious AEs: Other Medically Important Serious Event, % ([2]; Total) | Serious AEs: Persists of Signif. Disability/Incapacity, % ([2]; Total) | Serious AEs: Results in Death, % ([2]; Total) | Subjects with AEs leading to Discontinuation of trial drug, % ([2]; Total) | Subjects with maximum CTC Grade 5, % ([2]; Total)
2: N of evaluable patients with events of interests ([1]; Arm A, 60 mg (7 evaluable))
9.1%: Subjects with immune-related AEs, % ([2]; Total) | Subjects with infusion related reactions, % ([2]; Total) | Subjects with maximum CTC Grade 1, % ([2]; Total)
45 mg: highest dose level that fulfilled the EWOC criterion from the additional BLRM analysis ([1]; Arm A, events of interest during the entire treatment period) | Recommended Dose for Expansion (RDE) ([1]; monotherapy, Arm A D1 q3w) | Maximum Tolerated Dose (MTD) ([1]; monotherapy, Arm B D1 D8 q4w)
3 patients: patients with Grade ≥3 lymphopenia [2, 3]
5: N of evaluable patients with events of interests ([1]; Arm A, 80 mg (6 evaluable))
1: N of evaluable patients with events of interests ([1]; Arm A, 10 mg (1 evaluable)) | N of evaluable patients with events of interests ([1]; Arm A, 20 mg (2 evaluable)) | N of evaluable patients with events of interests ([1]; Arm A, 30 mg (3 evaluable)) | N of evaluable patients with events of interests ([1]; Arm A, 45 mg (6 evaluable)) | N of evaluable patients with events of interests ([1]; Arm A, 50 mg (4 evaluable))
100%: Subjects with any AE, % ([2]; 10 mg) | Subjects with investigator defined drug-related AEs, % ([2]; 10 mg) | Subjects with any AE, % ([2]; 20 mg) | Subjects with investigator defined drug-related AEs, % ([2]; 20 mg) | Subjects with maximum CTC Grade 3, % ([2]; 20 mg) | Subjects with any AE, % ([2]; 30 mg) | Subjects with investigator defined drug-related AEs, % ([2]; 30 mg) | Subjects with any AE, % ([2]; 45 mg) | Subjects with investigator defined drug-related AEs, % ([2]; 45 mg) | Subjects with any AE, % ([2]; Total) | Subjects with investigator defined drug-related AEs, % ([2]; Total)
One: patients with a DLT during cycle 1 ([2]; double combination with 240 mg ezabenlimab, 15 patients, Grade 2 neutropenia at 45 mg)
eight: patients with Grade ≥3 adverse events [2, 3]
66.7%: Subjects with maximum CTC Grade 2, % ([2]; 10 mg) | Serious AEs: Requires or Prolongs Hospitalization, % ([2]; 20 mg) | Subjects with serious AEs, % ([2]; 20 mg) | Serious AEs: Requires or Prolongs Hospitalization, % ([2]; 30 mg) | Subjects with serious AEs, % ([2]; 30 mg)
36.4%: Subjects with maximum CTC Grade 2, % ([2]; Total) | Subjects with maximum CTC Grade 3, % ([2]; Total)
60 mg: Maximum Tolerated Dose (MTD) ([1]; monotherapy, Arm A D1 q3w)
18.2%: Subjects with AEs leading to dose reduction of trial drug, % ([2]; Total) | Subjects with maximum CTC Grade 4, % ([2]; Total)
manageable safety profile: safety profile ([2]; double combination, 30 mg or 45 mg + 240 mg ezabenlimab D1 q3w)
50.0%: Serious AEs: Requires or Prolongs Hospitalization, % ([2]; 45 mg) | Subjects with AEs leading to dose reduction of trial drug, % ([2]; 45 mg) | Subjects with maximum CTC Grade 2, % ([2]; 45 mg) | Subjects with maximum CTC Grade 4, % ([2]; 45 mg) | Subjects with serious AEs, % ([2]; 45 mg)
33.3%: Subjects with infusion related reactions, % ([2]; 10 mg) | Subjects with maximum CTC Grade 1, % ([2]; 10 mg) | Subjects with immune-related AEs, % ([2]; 20 mg) | Subjects with AEs leading to dose reduction of trial drug, % ([2]; 30 mg) | Subjects with maximum CTC Grade 2, % ([2]; 30 mg) | Subjects with maximum CTC Grade 3, % ([2]; 30 mg) | Subjects with maximum CTC Grade 4, % ([2]; 30 mg)

Source: patent US20230058171A1, “NEW ORAL PHARMACEUTICAL COMPOSITION FOR CANCER THERAPY” (BOEHRINGER INGELHEIM INTERNATIONAL GMBH, priority 2021, published 2023)
